Test results published in patent publication US10696615B2, “Prenylated hydroxystilbenes” (The University of Sydney, priority 2011, dated 2020).

Tests used:
Type in all cases: cell-based, human
MDA-MB-468 = assay: NCI in vitro cancer screen, Breast Cancer; details: MDA-MB-468, Breast Cancer
SN12C = assay: NCI in vitro cancer screen, Renal Cancer; details: Renal Cancer
HS 578T = assay: NCI in vitro cancer screen, Breast Cancer; details: Breast Cancer
RXF-393 = assay: NCI in vitro cancer screen, Renal Cancer; details: RXF 393, Renal Cancer
OVCAR-8 = assay: NCI in vitro cancer screen, Ovarian Cancer; details: OVCAR-8, Ovarian Cancer
PC-3 = assay: NCI in vitro cancer screen, Prostate Cancer; details: PC-3, Prostate Cancer
SK-MEL-2 = assay: NCI in vitro cancer screen, Melanoma; details: SK-MEL-2, Melanoma
NCI-H460 = assay: NCI in vitro cancer screen, Non-Small Cell Lung Cancer; details: NCI-H460, Non-Small Cell Lung Cancer
UACC-62 = assay: NCI in vitro cancer screen, Melanoma; details: UACC-62, Melanoma
SK-OV-3 = assay: NCI in vitro cancer screen, Ovarian Cancer; details: SK-OV-3, Ovarian Cancer
HCC-2998 = assay: NCI in vitro cancer screen, Colon Cancer; details: HCC-2998, Colon Cancer
786-0 = assay: NCI in vitro cancer screen, Renal Cancer; details: 786-0, Renal Cancer
HOP-62 = assay: NCI in vitro cancer screen, Non-Small Cell Lung Cancer; details: HOP-62, Non-Small Cell Lung Cancer
A498 = assay: NCI in vitro cancer screen, Renal Cancer; details: A498, Renal Cancer
MDA-MB-435 = assay: NCI in vitro cancer screen, Melanoma; details: MDA-MB-435, Melanoma
SK-MEL-28 = assay: NCI in vitro cancer screen, Melanoma; details: SK-MEL-28, Melanoma
SR = assay: NCI in vitro cancer screen, Leukemia; details: Leukemia
EKVX = assay: NCI in vitro cancer screen, Non-Small Cell Lung Cancer; details: Non-Small Cell Lung Cancer
LOX IMVI = assay: NCI in vitro cancer screen, Melanoma; details: Melanoma
NCI-H23 = assay: NCI in vitro cancer screen, Non-Small Cell Lung Cancer; details: NCI-H23, Non-Small Cell Lung Cancer
HCT-15 = assay: NCI in vitro cancer screen, Colon Cancer; details: HCT-15, Colon Cancer
SF-268 = assay: NCI in vitro cancer screen, CNS Cancer; details: SF-268, CNS Cancer
T-47D = assay: NCI in vitro cancer screen, Breast Cancer; details: Breast Cancer
RPMI-8226 = assay: NCI in vitro cancer screen, Leukemia; details: RPMI-8226, Leukemia
TK-10 = assay: NCI in vitro cancer screen, Renal Cancer; details: TK-10, Renal Cancer
M14 = assay: NCI in vitro cancer screen, Melanoma; details: M14, Melanoma
SK-MEL-5 = assay: NCI in vitro cancer screen, Melanoma; details: SK-MEL-5, Melanoma
[1] = Homo sapiens, read-out: LC50 (the source's name)

Which results are given for `CC(C)=CCOc1cc(O)cc(/C=C/c2ccc(O)c(O)c2)c1CC=C(C)C` [USYDS14, (E)-2-(3-methyl-2-buten-1-yl)-3-(3-methyl-2-butenyloxy)-3′,4′,5-trihydroxystilbene]?
GI50 (MDA-MB-468; Homo sapiens): 1.42 µM; CC50 (MDA-MB-468; [1]): 16.4 µM; TGI (MDA-MB-468): 4.12 µM; GI50 (SN12C; Homo sapiens): 3.61 µM; CC50 (SN12C; [1]): 42 µM; TGI (SN12C): 15.1 µM; TGI (HS 578T): 20.5 µM; GI50 (HS 578T; Homo sapiens): 2.71 µM; CC50 (HS 578T; [1]): > 100 µM; GI50 (RXF-393; Homo sapiens): 1.07 µM; CC50 (RXF-393; [1]): 14.8 µM; TGI (RXF-393): 3.58 µM; GI50 (OVCAR-8; Homo sapiens): 3.59 µM; CC50 (OVCAR-8; [1]): 64.9 µM; TGI (OVCAR-8): 15.6 µM; GI50 (PC-3; Homo sapiens): 6.65 µM; CC50 (PC-3; [1]): 55 µM; TGI (PC-3): 21.6 µM; GI50 (SK-MEL-2; Homo sapiens): 3.72 µM; LC50 (SK-MEL-2; Homo sapiens): 41.2 µM; TGI (SK-MEL-2): 12.5 µM; GI50 (NCI-H460; Homo sapiens): 3.87 µM; CC50 (NCI-H460; [1]): 51.2 µM; TGI (NCI-H460): 14.9 µM; GI50 (UACC-62; Homo sapiens): 2.61 µM; CC50 (UACC-62; [1]): 39.1 µM; TGI (UACC-62): 13.2 µM; GI50 (SK-OV-3; Homo sapiens): 2.85 µM; CC50 (SK-OV-3; [1]): 37.2 µM; TGI (SK-OV-3): 13.7 µM; TGI (HCC-2998): 10.6 µM; GI50 (HCC-2998; Homo sapiens): 2.9 µM; CC50 (HCC-2998; [1]): 40.7 µM; TGI (786-0): 11.8 µM; GI50 (786-0; Homo sapiens): 3.44 µM; LC50 (50% net cell kill) (786-0; Homo sapiens): 40 µM; TGI (HOP-62): 3.77 µM; GI50 (HOP-62; Homo sapiens): 1.43 µM; CC50 (HOP-62; [1]): 9.98 µM; TGI (A498): 26.6 µM; GI50 (A498; Homo sapiens): 13 µM; CC50 (A498; [1]): 54.6 µM; GI50 (MDA-MB-435; Homo sapiens): 0.373 µM; CC50 (MDA-MB-435; [1]): 40 µM; TGI (MDA-MB-435): 8.45 µM; GI50 (SK-MEL-28; Homo sapiens): 3.05 µM; LC50 (SK-MEL-28; Homo sapiens): 41.6 µM; TGI (SK-MEL-28): 16.4 µM; GI50 (SR; Homo sapiens): 0.67 µM; CC50 (SR; [1]): > 100 µM; TGI (SR): 24.6 µM; GI50 (EKVX; Homo sapiens): 6.45 µM; CC50 (EKVX; [1]): 51.7 µM; TGI (EKVX): 21.2 µM; GI50 (LOX IMVI; Homo sapiens): 1.36 µM; CC50 (LOX IMVI; [1]): 8.35 µM; TGI (LOX IMVI): 3.37 µM; GI50 (NCI-H23; Homo sapiens): 2.92 µM; LC50 (NCI-H23; Homo sapiens): 57.6 µM; TGI (NCI-H23): 17.3 µM; TGI (HCT-15): 10.4 µM; GI50 (HCT-15; Homo sapiens): 2.06 µM; CC50 (HCT-15; [1]): 43.3 µM; GI50 (SF-268; Homo sapiens): 4.65 µM; CC50 (SF-268; [1]): 48.5 µM; TGI (SF-268): 17.8 µM; TGI (T-47D): 7.84 µM; GI50 (T-47D; Homo sapiens, T47D): 2.71 µM; CC50 (T-47D; Homo sapiens, T47D, read-out: LC50 (the source's name)): 61.8 µM; GI50 (RPMI-8226; Homo sapiens): 4.07 µM; CC50 (RPMI-8226; [1]): > 100 µM; TGI (RPMI-8226): 24.5 µM; GI50 (TK-10; Homo sapiens): 3.79 µM; LC50 (TK-10; Homo sapiens): 35.4 µM; TGI (TK-10): 12.1 µM; GI50 (M14; Homo sapiens): 2.95 µM; CC50 (M14; [1]): 50 µM; TGI (M14): 13.6 µM; GI50 (SK-MEL-5; Homo sapiens): 0.554 µM; CC50 (SK-MEL-5; [1]): 4.46 µM; TGI (SK-MEL-5): 1.87 µM
